Experimental data taken from US20130065818A1, “Arylamide Compounds And Compositions And Uses Thereof” (POLYMEDIX, priority 2006, published 2013).
Where “and” joins values, the source holds several entries; their conditions need not be identical. Equal values may be shown once.

Key:
[1] = system: fluoroquinolone-resistant, methicillin-resistant Staphylococcus aureus (K950); experiment: NZW rabbit keratitis model, corneal colony counts; format: in vivo; conditions: Example 11; for Log10 CFU/ml, Mean / Log10 CFU/ml, Median: count 3; for Log10 CFU/ml / CFU/ml: individual cornea; for CFU/ml: Inoculum = 1098 CFU/cornea
Excerpt: (§1) One purpose of the following experiments was to compare the efficacy of 1% Oligomer 2, 0.5% Oligomer 2, and 5% vancomycin in the treatment of a fluoroquinolone-resistant, methicillin-resistant Staphylococcus aureus infection in the NZW rabbit keratitis model with or without intact corneal epithelia.
Nothing was done to the right eyes.
as §1, with “0.25%” for “1%”, “with and without 0.005% benzalkonium chloride,” for “0.5% Oligomer 2,”, “epithelia. The 0.005% benzalkonium chloride has been added to try to increase the penetration of 0.25% Oligomer 2 through the corneal epithelium.” for “epithelia.”
One purpose of the following experiments was to determine the efficacy of 0.25% Oligomer 4, with and without 200 μM Farnesol, and 200 μM Farnesol in the treatment of a fluoroquinolone-resistant and methicillin-resistant Staphylococcus aureus infection in the NZW rabbit keratitis model with or without intact corneal epithelia. The 200 μM Farnesol has been added to try to increase the efficacy and penetration of 0.25% Oligomer 4 through the corneal epithelium.

[2] = NZW rabbit keratitis model, clinical evaluation (Total Ocular Score); conditions: for Chemosis / Conj. / Corneal Edema / Corneal Infiltrate / Discharge / Iritis / Total Score: Example 11, Oligomer 4 / Farnesol study; for Chemosis / Conj. / Corneal Edema / Corneal Infiltrate / Discharge / Iritis / Total Score / Total Ocular Score: individual eye; for Total Ocular Score: Example 12 data display
Protocol: Fifteen rabbits were received from Myrtles' Rabbitry, Thompson Station, TN. The clinical isolate of fluoroquinolone-resistant, methicillin-resistant (MRSA) Staphylococcus aureus (K950) was subcultured on 5% sheep blood agar and incubated at 37° C. in 6% CO2 overnight. The next morning, the MRSA strain was suspended in sterile trypticase soy broth to a 0.5 McFarland Standard, containing approximately 5×10^8 cfu/ml of bacteria. The absorbance of the suspension was measured at 650 nm using a Beckman DU-70 spectrophotometer. OD readings of 0.07 corresponded to 5×10^8 cfu/ml of bacteria. This concentration was appropriately diluted in sterile trypticase soy broth to provide the inoculum of approximately 1,000 (1.0×10^3) cfu/eye in 25 μl. Colony counts were performed on the inoculum to determine the actual cfu inoculated. Following general anesthesia with ketamine and xylazine and topical anesthesia with proparacaine and prior to bacterial inoculation in the left eyes, 6 mm areas of the corneal epithelia was removed centrally with an Amoils epithelial scrubber. Nothing was done to the right eyes. The 15 rabbits were then inoculated intrastromally in both eyes with 25 μl of the bacterial dilution of approximately 10^3 cfu/eye of the bacteria. The bacterial inoculation of the left eyes was directly under the epithelial defect created by the Amoils epithelial scrubber. The epithelia were removed in the left corneas in order to determine whether this layer of the cornea is a barrier for Oligomer 2 penetration when compared to the right cornea with an intact epithelium. A colony count was done on the inoculum to determine the actual cfu inoculated. The rabbits were immediately treated with analgesia in the form of and intramuscular injection of ketoprofen, 1.5 mg/kg. After 4 hours, the 15 rabbits were divided into 4 treatment groups and one untreated control group sacrificed at the onset of therapy. Both eyes of each rabbit of the treatment groups were treated with one 37 μl drop of the coded solutions or control Saline or 1 drop of vancomycin from its dropper bottle. The Oligomer 2 concentrations were masked and labeled as 1 and 2. The masked concentrations were 1% Oligomer 2 and 0.5% Oligomer 2 but the specific concentrations of solutions were not known to the lab workers who carried out the experiment. The vancomycin and control (Tris-Buffered Saline) were not masked.
Treatment was scheduled for every 15 minutes for 5 hours (21 total doses). However, PMX-1 and PMX-2 were exhausted after the 19th dose. Therefore, the actual treatment was 15 minutes for 4.5 hours (19 total doses). The 3 rabbits in group V were sacrificed 4 hours PI and large 9.5 mm buttons were removed from the corneas. These were placed in 1 ml of PBS and kept on ice. The corneal buttons were homogenized for 25 seconds on ice using the motorized homogenizer. After homogenization, colony counts were done on the homogenates using 5% sheep blood agar plates to determine the amount of bacteria contained in the corneas at the onset of therapy. Following the completion of therapy, the eyes were examined for clinical signs of infection. One hour after the final treatment, the treated rabbits (Groups I-IV) were sacrificed and large 9.5 mm buttons were removed from the corneas. These were placed in 1 ml of PBS and kept on ice. The corneal buttons were homogenized for 25 seconds on ice using the motorized homogenizer. After homogenization, colony counts were performed on the homogenates using 5% sheep blood agar plates to determine the amount of bacteria contained in the corneas after treatment. The next morning, the plates were counted and the number of cfu/eye of Staphylococcus aureus was determined for each cornea.
Fifteen rabbits were received from Myrtles' Rabbitry, Thompson Station, TN.

[3] = Example 11, abraded epithelium, count 3
[4] = Example 12, Ker-3 and Ker-4 combined, abraded epithelium, count 6
[5] = Example 11, intact epithelium, count 3
[6] = Example 12, Ker-3 and Ker-4 combined, intact epithelium, count 6

## CC(C)=CCCC(C)=CCCC(C)=CCO [FARN-AE]
[1]; abraded epithelium
  Log10 CFU/ml, Mean: 6.8762 Log10 CFU/ml
  Log10 CFU/ml, Median: 6.8893 Log10 CFU/ml
  Log10 CFU/ml: 6.889 Log10 CFU/ml and 6.823 Log10 CFU/ml and 6.916 Log10 CFU/ml
  CFU/ml: 7750000 CFU/ml and 6650000 CFU/ml and 8250000 CFU/ml
[2]; abraded epithelium
  Chemosis: 2.0 and 1.5 (2×)
  Conj.: 2.0 and 1.5 (2×)
  Corneal Edema: 2.0 and 1.0 (2×)
  Corneal Infiltrate: 1.0 (2×) and 0.5
  Discharge: 2.0 and 1.5 (2×)
  Iritis: 2.0 and 1.5 (2×)
  Total Score: 11.0 and 7.5 and 8.0
[2]; [3]
  Total Ocular Score, Mean: 8.83
  Total Ocular Score, Median: 8.00
[2]; [4]
  Total Ocular Score, Mean: 9.083
  Total Ocular Score, Median: 8.500
[2]; Ker-3, abraded epithelium
  Total Ocular Score: 11.0 and 8.5 (2×)
[2]; Ker-4, abraded epithelium
  Total Ocular Score: 11.0 and 7.5 and 8.0

## CC(C)=CCCC(C)=CCCC(C)=CCO [FARN-IE]
[1]; intact epithelium
  Log10 CFU/ml, Mean: 7.418 Log10 CFU/ml
  Log10 CFU/ml, Median: 7.330 Log10 CFU/ml and 7.3304 Log10 CFU/ml
  Log10 CFU/ml: 7.655 Log10 CFU/ml and 7.27 Log10 CFU/ml and 7.33 Log10 CFU/ml
  CFU/ml: 45200000 CFU/ml and 18600000 CFU/ml and 21400000 CFU/ml
[2]; intact epithelium
  Chemosis: 1.5 (2×) and 1.0
  Conj.: 1.5
  Corneal Edema: 1.0 (2×) and 0.5
  Corneal Infiltrate: 2.0 (2×) and 1.5
  Discharge: 1.5 (2×) and 1.0
  Iritis: 1.5 (2×) and 2.0
  Total Score: 9.0 and 7.0 and 9.5
[2]; [5]
  Total Ocular Score, Mean: 8.500
  Total Ocular Score, Median: 9.000
[2]; [6]
  Total Ocular Score, Mean: 9.000
  Total Ocular Score, Median: 9.250
[2]; Ker-3, intact epithelium
  Total Ocular Score: 10.0 (2×) and 8.5
[2]; Ker-4, intact epithelium
  Total Ocular Score: 9.0 and 7.0 and 9.5
